From article PMC6800772 (Molecular microbiology, 2019) come the findings set out here.

Structures can show the parent of a compound that is named as a salt.

This experiment addresses Pdr5 (Saccharomyces cerevisiae, UniProt P33302, A666G). Briefly: inhibition of R6G transport in whole cells. The experiment is classed as cell-based.

As usually defined, the IC50 is the concentration that gives 50% inhibition.

Pdr5, sequence (P33302 whole entry A666G): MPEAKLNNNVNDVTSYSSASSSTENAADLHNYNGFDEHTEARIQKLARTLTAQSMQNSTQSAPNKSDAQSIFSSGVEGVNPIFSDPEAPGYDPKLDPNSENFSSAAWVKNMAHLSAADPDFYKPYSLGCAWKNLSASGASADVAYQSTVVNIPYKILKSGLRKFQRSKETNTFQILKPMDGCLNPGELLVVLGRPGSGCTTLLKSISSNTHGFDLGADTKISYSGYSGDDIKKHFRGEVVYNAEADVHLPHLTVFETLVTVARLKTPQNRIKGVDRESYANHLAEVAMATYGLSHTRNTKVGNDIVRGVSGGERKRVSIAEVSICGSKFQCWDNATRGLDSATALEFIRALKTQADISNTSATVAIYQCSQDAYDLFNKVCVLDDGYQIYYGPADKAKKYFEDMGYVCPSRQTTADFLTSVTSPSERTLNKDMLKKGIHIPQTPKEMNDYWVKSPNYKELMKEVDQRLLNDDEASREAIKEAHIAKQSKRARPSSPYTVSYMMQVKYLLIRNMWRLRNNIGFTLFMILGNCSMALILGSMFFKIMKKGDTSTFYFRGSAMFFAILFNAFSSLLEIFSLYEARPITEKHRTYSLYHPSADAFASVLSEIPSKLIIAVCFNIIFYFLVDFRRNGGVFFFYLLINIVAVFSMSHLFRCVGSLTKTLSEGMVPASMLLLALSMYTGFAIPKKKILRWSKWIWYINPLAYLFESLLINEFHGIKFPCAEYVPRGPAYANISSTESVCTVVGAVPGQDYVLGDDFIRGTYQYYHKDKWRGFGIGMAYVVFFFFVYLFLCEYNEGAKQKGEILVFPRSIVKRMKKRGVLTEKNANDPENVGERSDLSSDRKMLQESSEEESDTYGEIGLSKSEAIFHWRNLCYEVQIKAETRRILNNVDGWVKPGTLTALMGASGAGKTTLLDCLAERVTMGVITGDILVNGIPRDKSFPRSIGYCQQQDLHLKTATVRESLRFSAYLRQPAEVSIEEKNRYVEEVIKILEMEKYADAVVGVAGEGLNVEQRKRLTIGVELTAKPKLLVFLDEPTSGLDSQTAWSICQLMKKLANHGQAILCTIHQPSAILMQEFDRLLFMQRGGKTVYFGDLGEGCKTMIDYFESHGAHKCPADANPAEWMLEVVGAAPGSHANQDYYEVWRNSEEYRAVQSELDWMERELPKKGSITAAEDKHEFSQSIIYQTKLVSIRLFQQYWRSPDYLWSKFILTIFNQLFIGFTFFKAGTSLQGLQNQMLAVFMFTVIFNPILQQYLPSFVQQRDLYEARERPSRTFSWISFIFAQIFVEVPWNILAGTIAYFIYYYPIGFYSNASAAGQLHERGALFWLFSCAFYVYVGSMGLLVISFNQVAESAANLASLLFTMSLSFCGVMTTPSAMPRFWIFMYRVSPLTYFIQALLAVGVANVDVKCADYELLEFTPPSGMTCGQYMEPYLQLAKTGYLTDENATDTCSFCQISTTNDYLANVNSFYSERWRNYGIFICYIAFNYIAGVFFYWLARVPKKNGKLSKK

Molecule `C=CCOC(Cn1ccnc1)c1ccc(Cl)cc1Cl` (stereo not shown) [imazalil sulfate] displayed an IC50 of about 100 µM.
